The record followed here is patent US7807672B2, “Compounds that are ERK inhibitors” (Schering Corporation, priority 2006, dated 2010).

The target of the test is fully phosphorylated, active Mouse ERK2 protein (Mus musculus, UniProt P63085). The test is described as follows: Active ERK2 assay (AERK2), IMAP format. The class given is biochemical. The note with it: activated ERK2, IMAP fluorescence polarization, 30 μM ATP. On the procedure: 14 μl of kinase buffer (10 mM Tris.HCl pH 7.2, 10 mM MgCl2, 0.01% Tween-20, 1 mM DTT) containing 0.4 ng unphosphorylated Mouse ERK2 protein was added to each well of a black 384-well assay plate. […] DMSO concentration during initial incubation is 6.7%. […] DMSO concentration during ERK activation was 4%. After one hour, reactions were terminated by addition of 60 μl IMAP detections beads in binding buffer (Molecular Devices). Binding was allowed to equilibrate for 30 minutes before reading the plate on an LJL Analyst Fluorescence Polarization plate reader.
Sequence of fully phosphorylated, active Mouse ERK2 protein (P63085 whole entry): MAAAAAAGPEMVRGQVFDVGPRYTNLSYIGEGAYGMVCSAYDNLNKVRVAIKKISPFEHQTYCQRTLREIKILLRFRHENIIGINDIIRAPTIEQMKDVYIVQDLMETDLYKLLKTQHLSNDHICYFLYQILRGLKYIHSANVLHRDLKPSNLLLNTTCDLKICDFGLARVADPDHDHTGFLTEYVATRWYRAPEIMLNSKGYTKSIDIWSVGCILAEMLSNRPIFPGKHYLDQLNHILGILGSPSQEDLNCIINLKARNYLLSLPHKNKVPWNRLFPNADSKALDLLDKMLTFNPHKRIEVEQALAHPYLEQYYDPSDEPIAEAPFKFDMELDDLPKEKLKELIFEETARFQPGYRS
Activated ERK2 activity was also determined in the IMAP assay format using the procedure outlined above. […] Reactions proceeded for 30 minutes before termination by addition of 60 μl IMAP detection beads in binding buffer. Plates were read as above after 30 minute binding equilibration.
(In general: Polarisation of emitted light reports the rotation of a fluorescent probe.)
Consider `CC(=O)c1cnc(-c2ccc(N3CCN(C(=O)CN4CC[C@@H](C(=O)Nc5ccc(O)c(Cl)c5)C4)CC3)cc2)nc1` [Example 20], for which half-maximal inhibition (IC50) required 44 nM.

As to `O=C(Nc1ccc(O)c(C(F)(F)F)c1)[C@@H]1CCN(CC(=O)N2CCN(c3ccc(-c4ncccn4)cc3)CC2)C1` [Example 1], the half-maximal inhibitory concentration (IC50) came to 76 nM.

On to `O=C(Nc1ccc(O)c(-c2ccc(F)cc2)c1)[C@@H]1CCN(CC(=O)N2CCN(c3ccc(-c4ncccn4)cc3)CC2)C1` [Example 212], for which half-maximal inhibition (IC50) required 53 nM.

Take `O=C(Nc1ccc(O)c(C2CC2)c1)[C@@H]1CCN(CC(=O)N2CCN(c3ccc(-c4ncccn4)cc3)CC2)C1` [Example 119]: the midpoint of inhibition, the IC50, lay at 39 nM.

With `O=C(Nc1ccc(O)c(Cl)c1)[C@@H]1CCN(CC(=O)N2C[C@@H]3C[C@H]2CN3c2ccc(-c3ncccn3)cc2)C1` [Example 19], 34 nM corresponded to half-maximal inhibition (IC50).

Turning to `C/C(=N\O)c1cnc(-c2ccc(N3CCN(C(=O)CN4CC[C@@H](C(=O)Nc5ccc(O)c(Cl)c5)C4)CC3)cc2)nc1` [Example 23], the IC50 amounted to 57 nM.

For `CO/N=C(\C)c1cnc(-c2ccc(N3CCN(C(=O)CN4CC[C@@H](C(=O)Nc5ccc(O)c(Cl)c5)C4)CC3)cc2)nc1` [Example 25], the concentration for half-maximal inhibition (IC50) is 18 nM.

The compound `CC(C)c1cc(NC(=O)[C@@H]2CCN(CC(=O)N3C[C@@H]4C[C@H]3CN4c3ccc(-c4cnccn4)cc3)C2)ccc1O` [Example 197] gave an IC50 of 40 nM.

`CC(C)c1cc(NC(=O)[C@@H]2CCN(CC(=O)N3C[C@@H]4C[C@H]3CN4c3ccc(-c4ncccn4)cc3)C2)ccc1O` [Example 196] came in with an IC50 of 38 nM.

As a reminder, the IC50 is the midpoint of a concentration-inhibition curve. Low readings indicate inhibition by little substance, high ones a need for much substance.
